No end group written: not given here.
Legend:
TLR4/MD-2 = biological target: T1, TLR4/MD-2 (Mus musculus, UniProt Q9JHF9+Q9QUK6); assay: Cytokine production in RAW264.7 cells with or without TLR4/MD-2 mAb pretreatment; type: cell-based; conditions: then 10 μg/mL peptide 24 h, ELISA, n = 3
T1 construct: endogenous in cells; host or cells: RAW264.7
T1 sequence (Q9QUK6 26-835): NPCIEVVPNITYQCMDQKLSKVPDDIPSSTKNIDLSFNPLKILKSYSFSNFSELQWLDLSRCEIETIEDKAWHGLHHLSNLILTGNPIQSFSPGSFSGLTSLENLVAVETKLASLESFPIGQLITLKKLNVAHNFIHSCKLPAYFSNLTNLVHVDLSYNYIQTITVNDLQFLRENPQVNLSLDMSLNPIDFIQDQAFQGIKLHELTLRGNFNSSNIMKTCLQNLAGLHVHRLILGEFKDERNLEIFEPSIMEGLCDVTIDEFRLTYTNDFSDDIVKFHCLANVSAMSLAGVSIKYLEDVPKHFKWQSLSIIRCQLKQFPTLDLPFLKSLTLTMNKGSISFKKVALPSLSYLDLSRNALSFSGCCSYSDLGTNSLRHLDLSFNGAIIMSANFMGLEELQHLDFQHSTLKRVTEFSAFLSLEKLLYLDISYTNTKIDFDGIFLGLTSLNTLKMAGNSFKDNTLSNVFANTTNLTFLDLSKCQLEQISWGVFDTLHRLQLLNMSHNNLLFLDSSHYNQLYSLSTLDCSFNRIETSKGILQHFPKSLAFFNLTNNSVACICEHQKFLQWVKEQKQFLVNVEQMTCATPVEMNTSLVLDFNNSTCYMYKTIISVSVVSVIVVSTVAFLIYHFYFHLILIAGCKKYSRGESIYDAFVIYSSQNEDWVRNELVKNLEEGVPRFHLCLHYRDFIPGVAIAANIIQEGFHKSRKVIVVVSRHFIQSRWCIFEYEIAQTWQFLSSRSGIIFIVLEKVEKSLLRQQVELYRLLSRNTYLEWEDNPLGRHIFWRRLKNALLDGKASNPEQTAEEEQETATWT
T1 sequence (Q9JHF9 19-160): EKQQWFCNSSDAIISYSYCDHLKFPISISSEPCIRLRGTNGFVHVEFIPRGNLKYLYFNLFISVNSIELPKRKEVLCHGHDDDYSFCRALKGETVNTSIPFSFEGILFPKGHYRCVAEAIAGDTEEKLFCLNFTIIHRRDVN
Method: RAW264.7 cells were treated with PBS or an anti-mouse mAbTLR4/MD-2 complex (MTS510 Ab) (eBioscience, San Diego, CA, USA) at 37 °C for 1 h, and RAW264.7 cells were treated with or without 10 μg/mL peptides for 24 h at 37 °C in a moist atmosphere (5% CO2, 95% air). Levels of TNF-α, IL-6, and IL-1β in the culture supernatant were detected by ELISA.

[1] = Ex vivo stability in plasma; type: in vitro ADME; conditions: rat plasma, in vitro, 37 °C, HPLC, log-linear regression; mean ± SEM of three biological replicates; read-out: t1/2, half-life in plasma (converted)
Method: The samples were collected into pre-chilled tubes containing 1 mL of acidic acetone (hydrochloric acid/acetone/H2O, 1:40:5, by volume). Subsequently, the mixture was centrifuged at 2 × 10^4 rpm at 4 °C for 20 min. The precipitates were dried in vacuo. The dried precipitates were dissolved in 0.5 mL of 1 M acetic acid. The peptide analysis was carried out according to the protocol for the study of Tα1 using HPLC [51]. The half-lives of the target peptides were calculated by a logarithm-linear regression analysis of the peptide concentrations.

[2] = tested on: CTX-immunosuppressed Balb/c mice; assay: Body weight and immune organ indices in CTX-immunosuppressed mice; type: in vivo, mouse; conditions: CTX 80 mg/kg ip days 1-3, peptide 10 mg/kg ip days 4-10, n = 12
From the text: Female specific-pathogen-free (SPF) Balb/c mice (6-8 weeks of age, weighing 20 ± 2.0 g) were purchased from Charles River (Beijing, China). The mice were housed in a SPF environment at room temperature with a relative humidity of 55 ± 10% and allowed free access to food and water during the experiments. All of the animal protocols were approved by the Institutional Animal Care and Ethics Committee of the China Agricultural University (CAU20170430-4). […] Sigma-Aldrich, St. Louis, MO, USA) group, a LL-37 group, a Tα1 group, and a LTAa group. For the first 3 days, CTX (80 mg/kg mouse weight) was administered intraperitoneally once daily to establish the immunosuppressed animal model. From days 4 to 10 (7 days), peptides (10 mg/kg mouse weight) were administered intraperitoneally each day. The CTX group was only treated with CTX, and the control group was given sterile saline. The dose volume was 200 μL. Twenty-four hours after the last dose, the mice were killed and their tissues and blood collected for analysis. The body weight index was calculated in the following way:(2) Index (%)=final body weight-[…] body weight/initial body weight ×100% Spleen and thymus indices were calculated in the following way:(3) Index (mg/kg)=weight of thymus or spleen/body weight

TNF-α, IL-6 and IL-1β production, PBS pretreatment (TLR4/MD-2; RAW264.7, PBS 1 h): significant increase
TNF-α, IL-6 and IL-1β production induced by LTAa after TLR4/MD-2 mAb pretreatment (TLR4/MD-2; RAW264.7, TLR4/MD-2 mAb (MTS510 Ab) 1 h): significantly inhibited
half-life [1]: 4.2 ± 1.13 h
Sequence: IGKEFKRIVQRIKDFLRNLVPRTEKEKKEVVE [LTAa]
body weight [2]: rapidly recovered their weight
spleen and thymus index [2]: reversed this effect
